The results in this text go back to ChEMBL document CHEMBL5126592, “Design, synthesis and activity against drug-resistant bacteria evaluation of C-20, C-23 modified 5-O-mycaminosyltylonolide derivatives” (Eur J Med Chem, 2022).

A short description of data set [1]: Genotoxicity in Salmonella typhimurium TA98 assessed as number of revertants at 1.6x10^-6 mg/plate incubated for 72 hrs in presence of liver S9 fraction by Ames test (reference value: 43.67+/- 7.1). Format: toxicity, subcellular. To be noted: salmonella enterica subsp. enterica serovar typhimurium, s9, 72 h.
Data set [2] in a line: Toxicity in Kunming mouse infected with Staphylococcus aureus ATCC 25923 assessed as appearance of pink and spongy lungs at 20 to 40 mg/kg, iv measured after 1 hr by hematoxylin and eosin staining based microscopic analysis. Format: organism-based. The conditions noted are these: in vivo, dose 20-40 mg/kg.
Data set [3] relates to Escherichia coli. Kind of data set: Antibacterial activity against Escherichia coli ATCC 25922 incubated for 16 to 20 hrs using 10^6 CFU/ml bacterial inoculum by broth microdilution method. To be noted: time 16-20 hrs. Format: functional. Background: Dilution methods test growth across graded concentrations, often in twofold steps.
The test system of data set [4] is Escherichia coli. Kind of data set: Antibacterial activity against Escherichia coli ATCC 25922 incubated for 16 to 20 hrs using 10^4 CFU/ml bacterial inoculum by broth microdilution method. Format: functional. The conditions noted are these: time 16-20 hrs.
The subject of data set [5] is Escherichia coli. Kind of data set: Antibacterial activity against Escherichia coli ATCC 25922 at pH 6.6 incubated for 16 to 20 hrs by broth microdilution method. The conditions noted are these: time 16-20 hrs. Format: functional.
In data set [6] the test system is Staphylococcus aureus. Kind of data set: Antibacterial activity against Staphylococcus aureus ATCC 25923 incubated for 16 to 20 hrs by broth microdilution method. Format: functional. To be noted: time 16-20 hrs.
Data set [7] deals with Staphylococcus aureus. Kind of data set: Ratio of MBC to MIC for Staphylococcus aureus ATCC 29213. Format: functional.
For data set [8], the system named is Staphylococcus aureus. Kind of data set: Antibacterial activity against Staphylococcus aureus ATCC 29213 at pH 8.6 incubated for 16 to 20 hrs in presence of 10% foetal bovine serum by broth microdilution method. The conditions noted are these: time 16-20 hrs. Format: functional.
A short description of data set [9]: Genotoxicity in Salmonella typhimurium TA100 assessed as number of revertants at 4x10^-5 mg/plate incubated for 72 hrs in absence of liver S9 fraction by Ames test (reference value: 221.67 +/- 15.57). Format: toxicity. The conditions noted are these: salmonella enterica subsp. enterica serovar typhimurium, s9, 72 h. (In the Ames test, an excess of revertant colonies over the control signals mutagenicity.)

The nature of data set [10]: Genotoxicity in Salmonella typhimurium TA100 assessed as number of revertants at 8x10^-6 mg/plate incubated for 72 hrs in absence of liver S9 fraction by Ames test (reference value: 221.67 +/- 15.57). Format: toxicity. The conditions noted are these: salmonella enterica subsp. enterica serovar typhimurium, s9, 72 h.
Data set [11] can be described thus: Genotoxicity in Salmonella typhimurium TA102 assessed as number of revertants at 8x10^-6 mg/plate incubated for 72 hrs in absence of liver S9 fraction by Ames test (reference value: 386.67 +/- 23.44). Format: toxicity. The conditions noted are these: salmonella enterica subsp. enterica serovar typhimurium, s9, 72 h.
The nature of data set [12]: Genotoxicity in Salmonella typhimurium TA1535 assessed as number of revertants at 8x10^-6 mg/plate incubated for 72 hrs in presence of liver S9 fraction by Ames test (reference value: 15.33 +/- 2.52). Format: toxicity, subcellular. The conditions noted are these: salmonella enterica subsp. enterica serovar typhimurium, s9, 72 h.
A short description of data set [13]: Genotoxicity in Salmonella typhimurium TA1537 assessed as number of revertants at 2x10^-4 mg/plate incubated for 72 hrs in absence of liver S9 fraction by Ames test (reference value: 22.67 +/- 2.52). Format: toxicity. The conditions noted are these: salmonella enterica subsp. enterica serovar typhimurium, s9, 72 h.

Each structure is given as a SMILES string. Values after ≈ are worked out from the molar mass of the structure shown.

As a reminder, the MIC is the least concentration at which growth counts as inhibited. Take `CC[C@H]1OC(=O)C[C@@H](O)[C@H](C)[C@@H](O[C@@H]2O[C@H](C)[C@@H](O)[C@H](N(C)C)[C@H]2O)[C@@H](CCN(C)Cc2cn(-c3cnc4ccccc4c3)nn2)C[C@@H](C)C(=O)/C=C/C(C)=C/[C@@H]1CN1CCCCCC1`: the Activity in data set [1] was 42.33; in [2], “Non-Toxic”; in [9], 201.67; in data set [10], 226; in data set [11], 425.33; in data set [12], 13.67. Also, the Activity in data set [13] is 15.67. For the same molecule, the minimum inhibitory concentration (MIC) worked out at 0.5 µg/mL (≈ 0.554 µM) with Escherichia coli [3]; 0.25 µg/mL (≈ 0.277 µM) in the data set with Escherichia coli [4]; 32 µg/mL (≈ 35.5 µM) in the data set with Escherichia coli [5]; 0.125 µg/mL (≈ 0.139 µM) against Staphylococcus aureus [6]; 0.5 µg/mL in the data set on Staphylococcus aureus [8]. Further, the Ratio in the data set on Staphylococcus aureus [7] is given as 2.
